Data from PubChem BioAssay (NCI).
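Method: 48-hour compound exposure of cells in 96-well plates, five concentrations, linear interpolation of endpoints. Abbreviation: GI50, concentration required for 50% inhibition of growth. The concentration for full growth arrest is given as TGI.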

Tests used:
Experiment in all cases: DTP human tumour cell line panel, 48 h
A498 renal = test system: A498 renal
A549 NSCLC = test system: A549 NSCLC
HL-60(TB) leukemia = test system: HL-60(TB) leukemia
HOP-92 NSCLC = test system: HOP-92 NSCLC
LOX IMVI melanoma = test system: LOX IMVI melanoma
MALME-3M melanoma = test system: MALME-3M melanoma
RPMI-8226 leukemia = test system: RPMI-8226 leukemia
SF-268 CNS = test system: SF-268 CNS
SF-539 CNS = test system: SF-539 CNS
SNB-19 CNS = test system: SNB-19 CNS

SMILES | TGI (A498 renal) [µM] | TGI (A549 NSCLC) [µM] | TGI (HL-60(TB) leukemia) [µM] | TGI (HOP-92 NSCLC) [µM] | TGI (LOX IMVI melanoma) [µM] | TGI (MALME-3M melanoma) [µM] | TGI (RPMI-8226 leukemia) [µM] | TGI (SF-268 CNS) [µM] | TGI (SF-539 CNS) [µM] | TGI (SNB-19 CNS) [µM] | GI50 (A498 renal) [µM] | GI50 (A549 NSCLC) [µM] | GI50 (HL-60(TB) leukemia) [µM] | GI50 (HOP-92 NSCLC) [µM] | GI50 (LOX IMVI melanoma) [µM] | GI50 (MALME-3M melanoma) [µM] | GI50 (RPMI-8226 leukemia) [µM] | GI50 (SF-268 CNS) [µM] | GI50 (SF-539 CNS) [µM] | GI50 (SNB-19 CNS) [µM]
CC1CCC2N(C1)CC1C3(O)CC45OC6(O)C(O)CCC4(C)C6CCC5C3(O)CC(O)C1(O)C2(C)O (stereo not given) | > 100 | > 100 | > 100 | > 100 | > 100 | > 100 | > 100 | > 100 | > 100 | > 100 |  |  |  |  |  |  |  |  |  | 
CC1=NN(C(=O)c2ccccc2O)C(=O)/C1=C/c1cccc([N+](=O)[O-])c1 | 0.801 | > 100 | > 62.9 | > 100 | > 78.5 | > 100 | > 100 | > 100 | 5.88 | > 100 |  |  |  |  |  |  |  |  |  | 
COc1cnc2cc(C(=O)O)c3ccccc3c2c1 | > 100 | > 100 | > 100 | > 100 | > 100 | > 100 | > 100 | > 100 | > 100 | > 100 |  |  |  |  |  |  |  |  |  | 
C#CCN(Cc1ccc2nc(N)[nH]c(=O)c2c1)c1ccc(C(=O)NC(CCC(=O)O)C(=O)O)cc1 (stereo not given) | > 100 | > 100 | > 100 | > 100 | > 100 | > 100 | > 100 | > 100 | > 100 | > 100 |  |  |  |  |  |  |  |  |  | 
COc1cccc(NC(=O)C(=O)C(C(C)=O)c2nc3ccc(Cl)cc3[nH]c2=O)c1 (stereo not given) | > 100 | > 100 | > 100 | > 100 | > 100 | > 100 | > 100 | > 100 | > 100 | > 100 |  |  |  |  |  |  |  |  |  | 
O=C(c1ccc(Cl)cc1)C1OC12C(=O)Nc1ccccc12 (stereo not given) | 36 | 58.6 | 1.58 | 30 | 4.67 | 18.8 | 10.2 | 40.2 | 30.6 | 86.7 |  |  |  |  |  |  |  |  |  | 
N#CC1C=Cc2ccccc2N1C(=O)Oc1ccccc1 (stereo not given) | 96.5 | > 100 | 48.6 | > 100 | > 100 | > 100 | 61.3 | > 100 | > 100 | > 100 |  |  |  |  |  |  |  |  |  | 
COc1ccc(CCc2cc(OC)c(OC)c(OC)c2)cc1 | 8.62 | 88.8 | 0.296 | 62.7 | 39.5 | 39.1 | 17.1 | 19.6 | 0.146 | > 100 |  |  |  |  |  |  |  |  |  | 
C/C(CC(=O)N(C(C)C)C(C)C)=N\NC(=O)c1ccncc1 | > 100 | > 100 | > 100 | > 100 | > 100 | > 100 | > 100 | > 100 | > 100 | > 100 |  |  |  |  |  |  |  |  |  | 
COC(=O)/C(=N\NC(N)=S)C(C#N)c1ccccc1 (stereo not given) | > 100 | > 100 | > 100 | > 100 | > 100 | > 100 | > 100 | > 100 | > 100 | > 100 |  |  |  |  |  |  |  |  |  | 
CC(=O)N(Cc1ccccc1)c1ccccc1I(=O)=O | > 100 | > 100 | 50.8 | 67.5 | 35.6 | > 100 | 32.7 | 48.9 | > 100 | > 100 | 49.7 | 55.6 | 14.9 | 13.3 | 17.5 | 19.3 | 15.7 | 16.2 | > 100 | 82.2
CC/C=C\C/C=C\C[C@H](O)C/C=C1/C(=O)C=C[C@@H]1C/C=C\CCCC(=O)OC | 4.67 | 5.62 | 6.06 | 6.02 | 0.493 | 4.88 | 7.32 | 11 | 6.09 | 13.7 | 2.48 | 2.4 | 1.71 | 2.62 | 0.21 | 1.92 | 0.572 | 2.57 | 2.53 | 3.05
O=C1CN(/N=C/c2ccc(-c3ccc(F)cc3)o2)C(=O)N1 | > 100 | > 100 | > 100 | 57.8 | > 100 | > 100 | > 100 | > 100 | > 100 | > 100 |  |  |  |  |  |  |  |  |  | 
Cc1nc(-n2nc(-c3ccccc3)cc2-c2ccccc2)sc1C(/C=C/c1ccc([N+](=O)[O-])cc1)=N/NC(=O)c1ccncc1 | > 100 | > 100 | 36.7 | 54.8 | 48.8 | > 100 | > 100 | > 100 | 41.5 | > 100 |  |  |  |  |  |  |  |  |  | 
Nc1ccc(S(=O)(=O)Nc2cnc3c(Cl)cccc3n2)cc1 | 597 | > 750 | 637 | 544 | > 736 | > 750 | > 705 | 704 | 513 | 620 |  |  | > 75 |  | > 20.2 |  | > 95.1 |  | > 94.6 | > 77.5
CN1CCc2c1nc(-c1ccc([N+](=O)[O-])cc1)c1c2N(C)CC1 | > 100 | > 100 | > 100 | > 100 | > 100 | > 100 | > 100 | > 100 | > 100 | > 100 |  |  |  |  |  |  |  |  |  | 
